Measurements taken from US9944721B2, “Polysialic acid and use for treatment of neurodegenerative and neuroinflammatory diseases” (RHEINISCHE FRIEDRICH-WILHELMS UNIVERSITÄT BONN, priority 2013, dated 2018).

What was measured:
[1] = system: humanized Siglec-11 transgenic mice; test: Experimental autoimmune encephalomyelitis (animal model of multiple sclerosis); type: in vivo
Protocol: Experimental autoimmune encephalomyelitis was induced in humanized Siglec-11 transgenic mice (humanized Siglec-11 mouse) and littermate control mice (normal control mice). Therefore, adult 6-8 weeks-old female humanized Siglec-11 transgenic mice (Wang et al. 2009, dissertation, University Bonn, uniform resource name: urn:nbn:de:hbz:5N-18095) and littermate control mice were immunized with 100 μg of myelin oligodendrocyte glycoprotein MOG (amino acids 35-55; Seqlab) in […] Freunds adjuvant (both DIFCO; BD GmbH, Heidelberg, Germany). Pertussis toxin (200 ng; List Biological Laboratories, Epsom, UK) was injected on days 0 and 2 of immunization. Clinical signs were scored as following: 0, no clinical signs; 1, complete limp tail; 2, complete limp tail and weakness of hindlimbs; 3, paraparesis of at least one hindlimb; 4, complete hindlimb paraparesis and weakness of forelimbs; and 5, fore- and hindlimb paralysis or moribund. Only mice having disease onset (clinical score of >=1) until day 20 were used for experiments.
Low molecular weight PSA-20 (1 μg per g body weight) was applied intraperitoneally into the mice on the day of disease onset (clinical score at least 1) and daily on the following three consecutive days. […] The cumulative disease score from the first day of treatment until day 25 was determined.

[2] = system: human induced pluripotent stem cell derived microglia (iPSdM-1); test: Half maximum effective concentration for reduction of LPS-induced TNF-α gene transcript; type: cell-based; conditions: LPS 1 μg/ml, 24 hours
Protocol: Human induced pluripotent stem cell derived microglia (iPSdM) were obtained from iPS cells. iPSdM-1 line was used in this study generated from the iLB-C-35m-r1 clone (Bonn). iPSdM-1 (here named microglia or microglial cells) were culture in N2-medium consisting of DMEM/F12 culture medium (Gibco) supplemented with 1% N2 (Invitrogen), 0.48 mM L-glutamine (Gibco) and 100 μg/ml penicillin/streptomycin (Gibco). Cells were cultured with high density and split 1:5. After splitting, cells recovered and attached again to the new dishes.
Cells were treated for 24 hours with 1 μg/ml lipopolysaccharides (LPS) and 5 nM, 15 nM, 50 nM, 150 nM, 500 nM, 1.5 μM, 5 μM, 15 μM, 50 μM or 150 μM of PSA-20. For gene transcript analysis of TNF-α, RNA was collected from cells via the RNeasy kit system (Quiagen) Reverse transcription of the RNA was performed using Super Script II reverse transcriptase (Life Technologies) and hexamer random primers (Roche). Quantitative RT-PCR with specific oligonucleotides was performed with SYBR Green PCR Master Mix (Qiagen) using the ABI 5700 Sequence Detection System (PerkinElmer). The qRT-PCR was running for 40 cycles with a Tm of 60° C. using the same primer as for the PCR. The […] method with GAPDH as internal standard was performed for qRT-PCR quantification.

human microglia = test: Microglial phagocytosis of fluorescently labeled neural debris; type: cell-based; conditions: 1 hour pre-incubation, untreated 32%+/−0.02
Protocol: The human microglia were challenged with fluorescently labeled neural debris and the uptake of the debris into the cells was determined by confocal microscopy and 3D-reconstruction.
To receive debris, neural stem cells were incubated with 40 nM okadaic acid (Sigma) for 24 hours. Then, cellular debris was collected and centrifuged. Debris was washed with PBS and stained with “Dil Derivatives for Long-Term Cellular Labeling” Molecular Probes (Invitrogen) according to the supplier's manual. Microglial cells were pre-incubated for 1 hour with concentration of 0.15 μM, 0.5 μM or 1.5 μM PSA-20 followed by 1 hour of incubation with 5 μg/ml prestained neural debris. Cells were fixed and incubated with an anti-iba1 antibody (Wako, Japan) followed by a secondary Alexa488-conjugated antibody (Molecular probes). For analysis images were randomly scanned and 3D-reconstructions were obtained by a confocal laser scanning microscope (Fluoview 1000, Olympus). To determine the ratio of cells having ingested fluorescently labeled material, six images per experiment group were obtained and all cells on the images were quantified using Image J software (NIH).

human microglial cells = test: Phagocytosis associated oxidative burst: neural debris triggered superoxide release (DHE); type: cell-based
Protocol: To measure the relative production of superoxide by the microglial cells, human microglial cells were plated in 4-chamber culture dishes. After 24 hours cells were treated with 5 mg/ml neural debris for 15 minutes with or without 1 hour PSA-20 pre-incubation at concentrations of 0.15 μM, 0.5 μM or 1.5 μM. Then, cells were washed 2-times with Krebs-HEPES-buffer. To detect the release of superoxide the cells were afterwards incubated for 15 minutes with 30 μM superoxide-sensitive fluorescent dye dihydroethidium (DHE) solution diluted in Krebs-HEPES-buffer. Finally cells were washed 2-times with Krebs-HEPES-buffer and fixed for 15 minutes with 0.25% glutaraldehyde and 4% PFA. In total, six images were randomly collected per experimental group by confocal laser scanning microscopy (Fluoview 1000, Olympus). All cells of the collected images were analyzed by Image J software (NIH).
To confirm the effect, Trolox as scavenger of superoxide and superoxide dismutase-1 (SOD1) as modifier of superoxide were used in a control experiment as described above using 1.5 μM of PSA-20 but adding either 40 μM Trolox or 20 μg/ml (SOD1) into the medium. […] As can be taken from the FIG. 9C, the radical scavenger Trolox and the superoxide dismutase SOD1 neutralized the neural debris triggered superoxide release and as controls confirmed that DHE detected an extracellular production of superoxide.

- EC50 ([2]; read-out: EC50 in human microglia (reduction of LPS-induced TNF-α gene transcript by 50%)): 90 nM
Substance: poly-(α(2→8)Neu5Ac)n [PSA-20]
- clinical signs (clinical score) ([1]; Siglec-11 transgenic mice, 1 μg per g body weight i.p. from disease onset, 4 days, from day 14 onwards, FIG. 8A): improved clinical signs
- cumulative disease score ([1]; first day of treatment until day 25, FIG. 8B): improved the clinical signs of disease
- concentration reducing the LPS-induced gene transcription of TNF-α ([2]; FIG. 10B): ≥ 0.05 µM
- percentage of microglia having ingested neural debris (human microglia; 0.5 μM): 25%+/−0.02
- percentage of microglia having ingested neural debris (human microglia; 1.5 μM): 22%+/−0.01
- superoxide release triggered by neural debris (human microglial cells; 0.5 μM and 1.5 μM): inhibited
- relative superoxide production, debris-induced (human microglial cells; 1.5 μM, 1 hour pre-incubation, debris alone 1.5+/−0.08, FIG. 9C): 0.9+/−0.05
